Assay [1] addresses T1, Pol theta (residues 1819-2590) (Homo sapiens, UniProt O75417).
T1 construct: Pol theta polymerase domain (residues 1819-2590) at a final concentration of 4 nM
T1 sequence (O75417 1819-2590): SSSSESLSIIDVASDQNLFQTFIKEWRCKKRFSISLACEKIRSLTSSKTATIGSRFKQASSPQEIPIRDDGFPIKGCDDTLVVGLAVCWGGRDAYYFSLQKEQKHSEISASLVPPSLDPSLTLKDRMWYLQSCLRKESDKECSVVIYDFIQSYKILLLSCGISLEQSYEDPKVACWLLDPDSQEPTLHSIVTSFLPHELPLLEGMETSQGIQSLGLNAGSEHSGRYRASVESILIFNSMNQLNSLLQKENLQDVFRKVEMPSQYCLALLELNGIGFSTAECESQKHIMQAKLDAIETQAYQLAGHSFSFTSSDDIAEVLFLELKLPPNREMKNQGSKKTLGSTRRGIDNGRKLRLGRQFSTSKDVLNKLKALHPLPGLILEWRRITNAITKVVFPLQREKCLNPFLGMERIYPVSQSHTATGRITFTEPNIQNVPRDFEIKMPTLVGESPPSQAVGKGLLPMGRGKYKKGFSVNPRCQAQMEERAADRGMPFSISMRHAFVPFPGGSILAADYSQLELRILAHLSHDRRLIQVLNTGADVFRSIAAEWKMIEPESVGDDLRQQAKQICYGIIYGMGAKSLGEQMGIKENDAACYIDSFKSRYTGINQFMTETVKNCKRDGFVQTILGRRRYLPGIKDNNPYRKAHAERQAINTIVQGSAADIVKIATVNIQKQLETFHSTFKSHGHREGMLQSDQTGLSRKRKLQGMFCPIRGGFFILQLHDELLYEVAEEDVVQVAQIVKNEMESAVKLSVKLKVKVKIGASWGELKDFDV
As to the kind of experiment: PPi assay (inhibition of polymerase activity of Pol theta, PPiLite luminescence). It counts as biochemical. To be noted: Pol theta 2.8 nM; luminescence kinetic mode 90 min. How it is done: The ability of the compounds of Formula (I) or Formula (II) to inhibit polymerase activity of Pol theta was determined using the PPi assay as set forth below.
A mixture of template DNA strand (SEQ ID NO:4: 5′ ATTACTGACCTCATACTTCTGCCCTTCCATGTTCTGTGCCCTCCTTCC 3′) and primer DNA strand (SEQ ID NO:5: 5′ GGA AGG AGG GCA CAG AAC 3′) was annealed in 10 mM Tris-HCl pH 8.0, […] buffer to form the primed DNA substrate. A 10-point dilution series of compounds were used in a 384 well format for the inhibition assay. Pol theta (residues 1819-2590) (2.8 nM) in assay buffer (20 mM Tris-HCl pH 7.8, 50 mM KCl, 10 mM MgCl2, 1 mM DTT, 0.01% BSA, 0.01% Tween-20) was transferred to the test wells (10 uL), except for the low control wells. The plate was then incubated at room temperature for 15 mins. An equal volume (10 μL) of dNTP substrate (40 μM) and primed DNA substrate (800 nM) in assay buffer was added to all the test wells. 20 μL of PPi detection reagent (PPiLite inorganic pyrophosphate assay, Lonzo) was then added to all test wells. The plate was then centrifuged at 1000 rpm for 1 min. The reaction was monitored in a Tecan M1000 Pro plate reader in luminescence kinetic mode for 90 min. The high control (DMSO with enzyme) with high luminescence represents no inhibition of the polymerase reaction while the low control (DMSO with buffer) with low luminescence represents full inhibition of the polymerase activity. Slope of the reaction progress curves were used to calculate the rate of polymerization. The rates were used to determine the percent inhibition using a four-parameter inhibition model to generate IC50, Hill slope, maximum inhibition, and minimum inhibition.

Assay [2] deals with T2, Pol theta polymerase domain (residues 1819-2590) (Homo sapiens, UniProt O75417).
T2 construct: Pol theta polymerase domain (residues 1819-2590) at a final concentration of 4 nM
T2 sequence (O75417 1819-2590): T1 sequence (O75417 1819-2590)
The experiment in a line: Primer extension assay (inhibition of polymerase activity of Pol theta, molecular beacon fluorescence). To be noted: Pol theta polymerase domain 4 nM; fluorescence change over 30 min. The format is biochemical. How it is done: The ability of the compounds of Formula (I) or Formula (II) to inhibit polymerase activity of Pol theta was determined using the primer extension assay as set forth below.
A mixture of 20 uL of Pol theta polymerase domain (residues 1819-2590) at a final concentration of 4 nM in assay buffer (20 m M TRIS, pH 7.80, 50 mM KCl, 10 mM MgCl2, 1 mM DTT, 0.01% BSA, 0.01% Tween20) was added to test compounds (11-point dilution series of test compounds) except the low control wells without test compounds. The above enzyme and test compound inhibitor mixture was then incubated at room temperature for 15 min. An equal volume (20 μl) of dNTP substrate mixture (48 μM) and primed molecular beacon DNA (obtained by annealing template SEQ ID NO:2: (5′-CCTTCCTCCCGTGTCTTG-TACCTTCCCGTCA-GGAGGAAGG-3′) with 5′-TAMRA and 3′-BHQ and primer DNA (SEQ ID NO:3; 5′-GACGGGAAGG-3′) in 10 mM Tris-HCl pH 8.0, 100 mM NaCl buffer) (96 nM) in assay buffer was added to all the test wells. The inhibition activity was measured by monitoring the fluorescence change over 30 min at 535 nm upon excitation at 485 nm. The high control (DMSO with enzyme) with high fluorescence intensity represents no inhibition of polymerase reaction while the low control (DMSO with buffer) with low fluorescence intensity represents full inhibition of polymerase activity. Slope of the reaction progress curves were used to calculate the rate of polymerization. The rates were used to determine the percent inhibition using a four-parameter inhibition model to generate IC50, Hill slope and max inhibition.

pIC50: −log10 of the molar value.

For `CN(C(=O)[C@H]1CCCN1c1cc(C(F)(F)F)cc(C(F)(F)F)n1)c1ccc(F)cc1` [1.002, (R)-1-(4,6-bis(trifluoromethyl)pyridin-2-yl)-N-(4-fluorophenyl)-N-methylpyrrolidine-2-carboxamide], the pIC50 in assay [1] and in assay [2] was 5.00 to 6.00 each time.

As to `CN(C(=O)[C@@H]1CCCN1c1cc(C(F)(F)F)cc(C(F)(F)F)n1)c1ccc(F)cc1` [1.003, (S)-1-(4,6-bis(trifluoromethyl)pyridin-2-yl)-N-(4-fluorophenyl)-N-methylpyrrolidine-2-carboxamide], the negative logarithm of the IC50 (pIC50) in assay [1] and in assay [2] was ≥ 6.70 in each case.

For the molecule `CN(C(=O)C1COCCN1c1cc(C(F)(F)F)cc(C(F)(F)F)n1)c1ccc(F)cc1` (stereo not drawn) [1.006, 4-(4,6-bis(trifluoromethyl)pyridin-2-yl)-N-(4-fluorophenyl)-N-methylmorpholine-3-carboxamide], the negative-log IC50 (pIC50) in assay [1] is 5.00 to 6.00; in assay [2], ≥ 6.70.

In the case of `CN(C(=O)[C@@H]1[C@@H](O)CCN1c1cc(C(F)(F)F)cc(C(F)(F)F)n1)c1ccc(F)cc1` [1.019, (2S,3S)-1-(4,6-bis(trifluoromethyl)pyridin-2-yl)-N-(4-fluorophenyl)-3-hydroxy-N-methylpyrrolidine-2-carboxamide], the negative logarithm of the IC50 (pIC50) in assay [1] and in assay [2] was ≥ 6.70 in each case.

As to `CC(=O)N[C@H]1C[C@@H](C(=O)N(C)c2ccc(F)cc2)N(c2cc(C(F)(F)F)cc(C(F)(F)F)n2)C1` [1.020, (2S,4S)-4-acetamido-1-(4,6-bis(trifluoromethyl)pyridin-2-yl)-N-(4-fluorophenyl)-N-methylpyrrolidine-2-carboxamide], the negative-log IC50 (pIC50) in assay [1] and in assay [2] was ≥ 6.70 in each case.

`CC(=O)N[C@@H]1C[C@@H](C(=O)N(C)c2ccc(F)cc2)N(c2cc(C(F)(F)F)cc(C(F)(F)F)n2)C1` [1.022, (2S,4R)-4-acetamido-1-(4,6-bis(trifluoromethyl)pyridin-2-yl)-N-(4-fluorophenyl)-N-methylpyrrolidine-2-carboxamide]: the pIC50 in assay [1] and in assay [2] was ≥ 6.70 each time.

As to `CN(C(=O)C1CCCN1c1nc(C(F)(F)F)cc(C(F)(F)F)c1C#N)c1ccc(F)cc1` (stereo not drawn) [1.024, 1-(3-cyano-4,6-bis(trifluoromethyl)pyridin-2-yl)-N-(4-fluorophenyl)-N-methylpyrrolidine-2-carboxamide], the negative logarithm of the IC50 (pIC50) in assay [1] and in assay [2] was ≥ 6.70 each time.

Turning to `O=C([C@@H]1CCCN1c1cc(C(F)(F)F)cc(C(F)(F)F)n1)N(c1ccc(F)cc1)C1COC1` [1.030, (S)-1-(4,6-bis(trifluoromethyl)pyridin-2-yl)-N-(4-fluorophenyl)-N-(oxetan-3-yl)pyrrolidine-2-carboxamide], the negative-log IC50 (pIC50) in assay [1] is ≥ 6.70.

Usually pIC50 stands for −log10 of the IC50, conventionally taken in molar units.

These data come from patent US20230303510A1, “CYCLIZED ACETAMIDO DERIVATIVES AS DNA POLYMERASE THETA INHIBITORS” (Ideaya Biosciences, Inc., priority 2020, published 2023).
